These results are taken from ChEMBL document CHEMBL1649144, “Breakpoints for susceptibility testing should not divide wild-type distributions of important target species” (2009).

A word on the MIC: it is the lowest concentration found to suppress growth. A lower MIC goes with greater potency.

SMILES strings stand for the structures. In brackets after ≈: the same amount, converted by molar mass.

Format in all cases: functional
The test system of assay [1] is Nakaseomyces glabratus. The assay can be described thus: Antimicrobial activity against Candida glabrata SSI-M68190-2007 by EUCAST method.
The test system of the next assay is Candida parapsilosis. Description: Antimicrobial activity against Candida parapsilosis ATCC 21019 by EUCAST method. The following applies: Lodderomyces parapsilosis.
Assay [2] has as its system Nakaseomyces glabratus. Description: Antimicrobial activity against Candida glabrata by EUCAST method.

Turning to `OC(Cn1cncn1)(Cn1cncn1)c1ccc(F)cc1F` [FLUCONAZOLE], the MIC in the assay with Nakaseomyces glabratus [1] was determined as 0.5 µg/mL (≈ 1.63 µM); against Candida parapsilosis, 0.5 µg/mL (≈ 1.63 µM); with Nakaseomyces glabratus [2], 8 µg/mL (≈ 26.1 µM).
